Measurements as given in patent US12636385B2, “Selective ligands for tau aggregates” (Sentonix, Inc., priority 2018, dated 2026).

How the values were obtained:
[1] = target: T1, Aβ(1-42) amyloid fibrils (Homo sapiens, UniProt P05067); assay: ^3H-AZD2184 competition binding to Aβ(1-42) fibrils in vitro; conditions: [^3H]-AZD2184, Aβ(1-42) amyloid fibrils; average if run more than once
T1 construct: Aβ(1-42) amyloid fibrils
Description: Competition binding experiments to Aβ(1-42) amyloid fibrils were performed as previously described in Jureus, A., et al, Journal of Neurochemistry (2010), Vol. 114, pages 784-794 for the Example compounds of the invention indicated in Table 2, or the known tau specific ligand PBB3 (PBB3 was synthesized as previously described in M. Maruyama, et al, Neuron 2013, 79, 1094-1108).
The results are shown in Table 2 in the column labeled “Aβ IC50”.

[2] = target: T2, 0N4R Tau fibrils (Homo sapiens, UniProt P10636); assay: ^3H-THK5117 competition binding to tau fibrils in vitro; conditions: for IC50: 3 nM [^3H]-THK5117, recombinant 0N4R tau fibrils, average if run more than once; for Selectivity for tau relative to Aβ: calculated from [^3H]-THK5117 tau and [^3H]-AZD2184 Aβ assays
T2 construct: made in house
Description: Preparation of recombinant 0N4R Tau fibrils was performed as previously described in Morozova, O. A., Biochemistry (2013), Vol., 52(40), pages 6960-6967. Competition binding experiments to 0N4R Tau fibrils were performed by incubating increasing concentrations [10^−10-10^−6 M] of the Example compounds of the invention, or the known tau specific ligand PBB3 (PBB3 was synthesized as previously described in M. Maruyama, et al, Neuron 2013, 79, 1094-1108) or MK6240 (Novandi Chemistry AB), in the presence of 3 nM of the known tau ligand [^3H]-THK5117 (Novandi Chemistry) and 0.2 mM 0N4R tau fibrils in binding buffer (50 mM Tris-HCl, pH 7.4, 0.1% BSA) for 1 h in the dark, and at 22° C. The incubation was terminated by filtration through a Whatman GF/B glass filter (Whatman International, Kent, UK) using a Brandel cell harvester. The filter was then washed rapidly four times with 3 mL of ice-cold wash buffer (5 mM Tris-HCl, 0.25 mM NaCl, 5% EtOH), and equilibrated for 1 h in scintillation vials containing 5 mL of Ultima Gold scintillation fluid before being analysed using a Liquid Scintillation Analyzer.
The results are shown in Table 2 in the column labeled “Tau IC50”.
Relative selectivity for tau compared to Aβ for the exemplified compounds was calculated using the results for the [^3H]-THK5117 tau and [^3H]-AZD2184 Aβ assays described above. The calculated results are shown in Table 2 in the column labeled “Selectivity for tau relative to Aβ”.

T1 sequence (P05067 672-713): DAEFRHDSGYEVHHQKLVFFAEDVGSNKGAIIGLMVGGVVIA
T2 sequence (P10636 1-383 isoform P10636-6): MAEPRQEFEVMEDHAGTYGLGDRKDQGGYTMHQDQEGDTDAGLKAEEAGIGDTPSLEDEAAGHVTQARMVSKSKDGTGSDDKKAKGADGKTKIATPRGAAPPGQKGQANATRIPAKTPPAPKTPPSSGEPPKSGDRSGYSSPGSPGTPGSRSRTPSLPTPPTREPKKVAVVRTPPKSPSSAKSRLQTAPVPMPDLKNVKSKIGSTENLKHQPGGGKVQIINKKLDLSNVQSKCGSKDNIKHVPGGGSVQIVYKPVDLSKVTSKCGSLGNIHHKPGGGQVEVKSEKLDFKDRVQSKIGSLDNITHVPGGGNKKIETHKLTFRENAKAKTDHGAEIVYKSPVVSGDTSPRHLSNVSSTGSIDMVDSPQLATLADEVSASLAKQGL

IC50 [1] [nM]	IC50 [2] [nM]	Selectivity for tau relative to Aβ [2]	Structure (SMILES)
43	11	3.9	FCCCCOCC1CCN(c2ccc(-c3nc4ccccc4s3)cn2)CC1 [Compound 3]
24	5	4.8	FCCCCOC1CCN(c2ccc(-c3nc4ccccc4s3)cn2)CC1 [Compound 5]
3	16	0.2	FCCOCCOCCOC1CCN(c2ccc(-c3nc4ccccc4s3)cn2)CC1 [Compound 6]
15	7	2.1	OCCC1CCN(c2ccc(-c3nc4ccccc4s3)cn2)CC1 [Compound 7]
70	5	14	COc1ccc2nc(-c3ccc(N4CCC(CCO)CC4)nc3)sc2c1 [Compound 21]
4	4	1	COc1ccc2nc(-c3ccc(N4CCC(CCOCCOCCOCCF)CC4)nc3)sc2c1 [Compound 22]
4	4	1	COc1ccc2nc(-c3ccc(N4CCC(OCCO)CC4)nc3)sc2c1 [Compound 23]
1	2	0.5	COc1ccc2nc(-c3ccc(N4CCC(CCF)CC4)nc3)sc2c1 [Compound 24]
65	3	22	COc1ccc2nc(-c3cnc(N4CCC(CCO)CC4)nc3)sc2c1 [Compound 25]
8	5	1.6	COc1ccc2nc(-c3cnc(N4CCC(CCOCCOCCOCCF)CC4)nc3)sc2c1 [Compound 26]
34	7	4.9	OCCC1CCN(c2ccc(-c3cc4ccccc4o3)cn2)CC1 [Compound 27]
15	10	1.5	OCCC1CCN(c2ncc(-c3cc4ccccc4o3)cn2)CC1 [Compound 28]
25	12	2.1	FCCC1CCN(c2ncc(-c3cc4ccccc4o3)cn2)CC1 [Compound 30]
66	43	1.5	OC1CCN(c2ncc(-c3cc4ccccc4o3)cn2)CC1 [Compound 32]
6	28	0.2	FCCOCCOCCOC1CCN(c2ncc(-c3cc4ccccc4o3)cn2)CC1 [Compound 33]
91	3	30	OCCC1CCN(c2ccc(-c3nc4ccc(O)cc4s3)cn2)CC1 [Compound 36]
250	6	42	OCCC1CCN(c2ncc(-c3nc4ccc(O)cc4s3)cn2)CC1 [Compound 38]
50	1.5	33	Oc1ccc2nc(-c3cnc(N4CCC(CCF)CC4)nc3)sc2c1 [Compound 39]
70	6	12	N#Cc1ccc2nc(-c3cnc(N4CCC(CCO)CC4)nc3)sc2c1 [Compound 40]
	20		NC(=O)c1ccc2cc(-c3cnc(N4CCC(CF)CC4)nc3)[nH]c2c1 [Compound 70, 2-{2-[4-(Fluoromethyl)piperidin-1-yl]pyrimidin-5-yl}-1H-indole-6-carboxamide]
	41		OCC1CCN(c2ccc(-c3cc4cccnc4[nH]3)c(F)n2)CC1 [Compound 73, [1-(6-Fluoro-5-{1H-pyrrolo[2,3-b]pyridin-2-yl}pyridin-2-yl)piperidin-4-yl]methanol]
	14		COc1cnc2[nH]c(-c3ccc(N4CCC(CO)CC4)nc3F)cc2c1 [Compound 74]
	14		OCC1CCN(c2ccc(-c3cc4cc(O)cnc4[nH]3)c(F)n2)CC1 [Compound 75]
	14		OCC1CCN(c2ccc(-c3cc4cc(OCCF)ccc4[nH]3)cn2)CC1 [Compound 77]
